Reference: patent US20240391862A1, “(1,4,5-TRISUBSTITUTED-1H-PYRAZOL-3-YL)OXY-2-ALKOXY ALKYL ACIDS AND THEIR DERIVATIVES, THEIR SALTS AND THEIR USE AS HERBICIDAL AGENTS” (Bayer AKtiengesellschaft, priority 2021, published 2024)

Experiments:
Assay in all cases: Post-emergence herbicidal effect, greenhouse pot test
MATIN = type: in vivo, Tripleurospermum inodorum
How it was run: (§1)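 Greenhouse pot test: weeds and crops sown in sandy loam, sprayed post-emergence at one-leaf stage (2–3 weeks after sowing) with WP or EC formulations plus 0.5% additive at 600 l/ha water, rates 20–320 g/ha. Visual rating about 3 weeks later versus untreated controls (100% = dead, 0% = as control).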

PHBPU = type: in vivo, Ipomoea purpurea
How it was run: as §1

DIGSA = type: in vivo, Digitaria sanguinalis; details: visual rating about 3 weeks after treatment
How it was run: as §1

LOLRI = type: in vivo, Lolium rigidum
How it was run: as §1

VERPE = type: in vivo, Veronica persica
How it was run: as §1

ALOMY = type: in vivo, Alopecurus myosuroides; details: visual rating about 3 weeks after treatment
How it was run: as §1

POLCO = type: in vivo, Fallopia convolvulus
How it was run: as §1

VIOTR = type: in vivo, Viola tricolor
How it was run: as §1

AVEFA = type: in vivo, Avena fatua; details: visual rating about 3 weeks after treatment
How it was run: as §1

KCHSC = type: in vivo
How it was run: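 Visual rating of activity against untreated plants (100% = plants died, 0% = no effect), done about 3 weeks after treatment. Compounds applied at 20–320 g/ha as aqueous spray (600 l/ha, 0.5% additive) from WP or EC formulations onto one-leaf-stage plants grown in sandy loam under greenhouse conditions.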

SETVI = type: in vivo, Setaria viridis
How it was run: as §1

AMARE = type: in vivo, Amaranthus retroflexus; details: visual rating about 3 weeks after treatment
How it was run: as §1

ECHCG = type: in vivo, Echinochloa crus-galli
How it was run: as §1

ABUTH = type: in vivo, Abutilon theophrasti; details: visual rating about 3 weeks after treatment
How it was run: as §1

[1] = Ipomoea purpurea, 504 h, 20 g/ha, read-out: Post-emergence effect against PHBPU in %
[2] = Lolium rigidum, 504 h, read-out: Post-emergence effect against LOLRI in %
[3] = Amaranthus retroflexus, 504 h, 80 g/ha, read-out: Post-emergence effect against AMARE
[4] = 20 g/ha, visual rating about 3 weeks after treatment

## COC(=O)C(OC)Oc1nn(-c2ncccc2F)c(-c2cncc(F)c2)c1C1CC1 (stereo not drawn) [Example I-73]
MATIN; Tripleurospermum inodorum, 504 h, 80 g/ha, read-out: Post-emergence effect against MATIN in %
  pest or weed control at 80 g/ha: 90%
MATIN; Tripleurospermum inodorum, 504 h, 320 g/ha, read-out: Post-emergence effect against MATIN in %
  pest or weed control at 320 g/ha: 90%
PHBPU; [1]
  pest or weed control at 20 g/ha: 80%
PHBPU; Ipomoea purpurea, 504 h, 80 g/ha, read-out: Post-emergence effect against PHBPU in %
  pest or weed control at 80 g/ha: 90%
PHBPU; Ipomoea purpurea, 504 h, 320 g/ha, read-out: Post-emergence effect against PHBPU in %
  pest or weed control at 320 g/ha: 90%
DIGSA; Digitaria sanguinalis, 504 h, 320 g/ha, read-out: Post-emergence effect against DIGSA
  pest or weed control at 320 g/ha: 80%
LOLRI; [2]
  pest or weed control at 80 g/ha: 90%
LOLRI; Lolium rigidum, 504 h, 320 g/ha, read-out: Post-emergence effect against LOLRI in %
  pest or weed control at 320 g/ha: 90%
VERPE; Veronica persica, 504 h, 80 g/ha, read-out: Post-emergence effect against VERPE in %
  pest or weed control at 80 g/ha: 90%
VERPE; Veronica persica, 504 h, 320 g/ha, read-out: Post-emergence effect against VERPE in %
  pest or weed control at 320 g/ha: 90%
ALOMY; Alopecurus myosuroides, 504 h, 80 g/ha, read-out: Post-emergence effect against ALOMY
  pest or weed control at 80 g/ha: 80%
ALOMY; Alopecurus myosuroides, 504 h, 320 g/ha, read-out: Post-emergence effect against ALOMY
  pest or weed control at 320 g/ha: 90%
POLCO; 20 g/ha
  Post-emergence effect against POLCO in %: 80%
POLCO; Fallopia convolvulus, 504 h, 80 g/ha, read-out: Post-emergence effect against POLCO in %
  pest or weed control at 80 g/ha: 80%
POLCO; Fallopia convolvulus, 504 h, 320 g/ha, read-out: Post-emergence effect against POLCO in %
  pest or weed control at 320 g/ha: 90%
VIOTR; Viola tricolor, 504 h, 20 g/ha, read-out: Post-emergence effect against VIOTR in %
  pest or weed control at 20 g/ha: 90%
VIOTR; Viola tricolor, 504 h, 80 g/ha, read-out: Post-emergence effect against VIOTR in %
  pest or weed control at 80 g/ha: 90%
VIOTR; Viola tricolor, 504 h, 320 g/ha, read-out: Post-emergence effect against VIOTR in %
  pest or weed control at 320 g/ha: 90%
AVEFA; Avena fatua, 504 h, 80 g/ha, read-out: Post-emergence effect against AVEFA
  pest or weed control at 80 g/ha: 90%
AVEFA; Avena fatua, 504 h, 320 g/ha, read-out: Post-emergence effect against AVEFA
  pest or weed control at 320 g/ha: 90%
KCHSC; 20 g/ha
  Post-emergence effect against KCHSC in %: 80%
KCHSC; 504 h, 80 g/ha, read-out: Post-emergence effect against KCHSC in %
  pest or weed control at 80 g/ha: 90%
KCHSC; 504 h, 320 g/ha, read-out: Post-emergence effect against KCHSC in %
  pest or weed control at 320 g/ha: 90%
SETVI; 20 g/ha
  Post-emergence effect against SETVI in %: 80%
SETVI; Setaria viridis, 504 h, 80 g/ha, read-out: Post-emergence effect against SETVI in %
  pest or weed control at 80 g/ha: 90%
SETVI; Setaria viridis, 504 h, 320 g/ha, read-out: Post-emergence effect against SETVI in %
  pest or weed control at 320 g/ha: 90%
AMARE; Amaranthus retroflexus, 504 h, 20 g/ha, read-out: Post-emergence effect against AMARE
  pest or weed control at 20 g/ha: 80%
AMARE; [3]
  pest or weed control at 80 g/ha: 90%
AMARE; Amaranthus retroflexus, 504 h, 320 g/ha, read-out: Post-emergence effect against AMARE
  pest or weed control at 320 g/ha: 90%
ECHCG; Echinochloa crus-galli, 504 h, 20 g/ha, visual rating about 3 weeks after treatment, read-out: Post-emergence effect against ECHCG
  pest or weed control at 20 g/ha: 90%
ECHCG; Echinochloa crus-galli, 504 h, 80 g/ha, read-out: Post-emergence effect against ECHCG in %
  pest or weed control at 80 g/ha: 90%
ECHCG; Echinochloa crus-galli, 504 h, 320 g/ha, read-out: Post-emergence effect against ECHCG in %
  pest or weed control at 320 g/ha: 90%
ABUTH; 20 g/ha
  Post-emergence effect against ABUTH: 80%
ABUTH; Abutilon theophrasti, 504 h, 80 g/ha, read-out: Post-emergence effect against ABUTH
  pest or weed control at 80 g/ha: 80%
ABUTH; Abutilon theophrasti, 504 h, 320 g/ha, read-out: Post-emergence effect against ABUTH
  pest or weed control at 320 g/ha: 90%

## COC(=O)CCOC(=O)C(OC)Oc1nn(-c2cc(F)ccc2F)c(-c2cncc(F)c2)c1C1CC1 (stereo not drawn) [Example I-83]
MATIN; 20 g/ha
  Post-emergence effect against MATIN in %: 80%
MATIN; 80 g/ha
  Post-emergence effect against MATIN in %: 90%
MATIN; 320 g/ha
  Post-emergence effect against MATIN in %: 90%
PHBPU; 20 g/ha
  Post-emergence effect against PHBPU in %: 90%
PHBPU; 80 g/ha
  Post-emergence effect against PHBPU in %: 90%
PHBPU; 320 g/ha
  Post-emergence effect against PHBPU in %: 90%
DIGSA; 320 g/ha
  Post-emergence effect against DIGSA: 90%
LOLRI; 320 g/ha
  Post-emergence effect against LOLRI in %: 90%
VERPE; 20 g/ha
  Post-emergence effect against VERPE in %: 90%
VERPE; 80 g/ha
  Post-emergence effect against VERPE in %: 90%
VERPE; 320 g/ha
  Post-emergence effect against VERPE in %: 90%
ALOMY; 80 g/ha
  Post-emergence effect against ALOMY: 90%
ALOMY; 320 g/ha
  Post-emergence effect against ALOMY: 90%
POLCO; 80 g/ha
  Post-emergence effect against POLCO in %: 80%
POLCO; 320 g/ha
  Post-emergence effect against POLCO in %: 90%
VIOTR; 20 g/ha
  Post-emergence effect against VIOTR in %: 90%
VIOTR; 80 g/ha
  Post-emergence effect against VIOTR in %: 90%
VIOTR; 320 g/ha
  Post-emergence effect against VIOTR in %: 90%
AVEFA; 80 g/ha
  Post-emergence effect against AVEFA: 90%
AVEFA; 320 g/ha
  Post-emergence effect against AVEFA: 90%
KCHSC; 320 g/ha
  Post-emergence effect against KCHSC in %: 80%
SETVI; 20 g/ha
  Post-emergence effect against SETVI in %: 90%
SETVI; 80 g/ha
  Post-emergence effect against SETVI in %: 90%
SETVI; 320 g/ha
  Post-emergence effect against SETVI in %: 90%
AMARE; 20 g/ha
  Post-emergence effect against AMARE: 90%
AMARE; 80 g/ha
  Post-emergence effect against AMARE: 90%
AMARE; 320 g/ha
  Post-emergence effect against AMARE: 90%
ECHCG; [4]
  Post-emergence effect against ECHCG: 90%
ECHCG; 80 g/ha
  Post-emergence effect against ECHCG in %: 90%
ECHCG; 320 g/ha
  Post-emergence effect against ECHCG in %: 90%
ABUTH; 20 g/ha
  Post-emergence effect against ABUTH: 80%
ABUTH; 80 g/ha
  Post-emergence effect against ABUTH: 90%
ABUTH; 320 g/ha
  Post-emergence effect against ABUTH: 90%

## COC(Oc1nn(-c2ncccc2F)c(-c2cncc(F)c2)c1C1CC1)C(=O)O (stereo not drawn) [Example I-84]
MATIN; 80 g/ha
  Post-emergence effect against MATIN in %: 80%
MATIN; 320 g/ha
  Post-emergence effect against MATIN in %: 80%
PHBPU; 80 g/ha
  Post-emergence effect against PHBPU in %: 90%
PHBPU; 320 g/ha
  Post-emergence effect against PHBPU in %: 90%
PHBPU; [1]
  pest or weed control at 20 g/ha: 80%
DIGSA; 320 g/ha
  Post-emergence effect against DIGSA: 90%
DIGSA; Digitaria sanguinalis, 504 h, 80 g/ha, read-out: Post-emergence effect against DIGSA
  pest or weed control at 80 g/ha: 80%
LOLRI; 320 g/ha
  Post-emergence effect against LOLRI in %: 90%
LOLRI; [2]
  pest or weed control at 80 g/ha: 90%
VERPE; 80 g/ha
  Post-emergence effect against VERPE in %: 90%
VERPE; 320 g/ha
  Post-emergence effect against VERPE in %: 90%
ALOMY; 320 g/ha
  Post-emergence effect against ALOMY: 90%
POLCO; 80 g/ha
  Post-emergence effect against POLCO in %: 90%
POLCO; 320 g/ha
  Post-emergence effect against POLCO in %: 90%
VIOTR; 80 g/ha
  Post-emergence effect against VIOTR in %: 90%
VIOTR; 320 g/ha
  Post-emergence effect against VIOTR in %: 90%
AVEFA; 80 g/ha
  Post-emergence effect against AVEFA: 90%
AVEFA; 320 g/ha
  Post-emergence effect against AVEFA: 90%
KCHSC; 80 g/ha
  Post-emergence effect against KCHSC in %: 90%
KCHSC; 320 g/ha
  Post-emergence effect against KCHSC in %: 90%
KCHSC; 504 h, 20 g/ha, read-out: Post-emergence effect against KCHSC in %
  pest or weed control at 20 g/ha: 90%
SETVI; 80 g/ha
  Post-emergence effect against SETVI in %: 90%
SETVI; 320 g/ha
  Post-emergence effect against SETVI in %: 90%
SETVI; Setaria viridis, 504 h, 20 g/ha, read-out: Post-emergence effect against SETVI in %
  pest or weed control at 20 g/ha: 80%
AMARE; 320 g/ha
  Post-emergence effect against AMARE: 80%
AMARE; [3]
  pest or weed control at 80 g/ha: 80%
ECHCG; [4]
  Post-emergence effect against ECHCG: 90%
ECHCG; 80 g/ha
  Post-emergence effect against ECHCG in %: 90%
ECHCG; 320 g/ha
  Post-emergence effect against ECHCG in %: 90%
ABUTH; 80 g/ha
  Post-emergence effect against ABUTH: 80%
ABUTH; 320 g/ha
  Post-emergence effect against ABUTH: 80%
